Data taken from US20230089867A1, “CYCLIC PENTAMER COMPOUNDS AS PROPROTEIN CONVERTASE SUBTILISIN/KEXIN TYPE 9 (PCSK9) INHIBITORS FOR THE TREATMENT OF METABOLIC DISORDER” (Novartis AG, priority 2018, published 2023).
Like-named read-outs stand apart in the source and are kept apart here.

Target: human PCSK9 (Homo sapiens, UniProt Q8NBP7)
Assay: PCSK9 ligand binding TR-FRET assay (interference with binding of human PCSK9 to human LDLR)
Conditions: for Max % inhibition: PCSK9 FRET assay, efficacy (Amax), 100% = 1 uM unlabeled human PCSK9, 0% = DMSO
How it was run: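 Threefold compound dilutions were pre-incubated 30 min with PCSK9, after which 4 nM Europium Kryptate-tagged human LDLR ectodomain was added for a further 2 h.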

[1] = TR-FRET, human PCSK9 Alexa Fluor 647 / human LDLR extracellular domain-Europium Kryptate, read-out: PCSK9 FRET Assay IC50

SMILES | Max % inhibition [%] | IC50 [1] [nM] | IC50 [nM]
COC[C@@H]1NC(=O)[C@H](C)N(Cc2ccc(Cl)cc2Oc2ccc(-c3cnc4n3CCN(C(=O)C3CCOC3)C4)cc2)C(=O)C[C@@H](Cc2ccccc2)C(=O)N(C)[C@@H](C)CNC(=O)C[C@H](Cc2ccc(Cl)cc2)N(C)C1=O (stereo partly drawn) [Compound 133, (2S,5S,8S,13S,16R)-16-benzyl-1-(4-chloro-2-(4-(7-(tetrahydrofuran-3-carbonyl)-5,6,7,8-tetrahydroimidazo[1,2-a]pyrazin-3-yl)phenoxy)benzyl)-8-(4-chlorobenzyl)-5-(methoxymethyl)-2,7,13,14-tetramethyl-1,4,7,11,14-pentaazacyclooctadecane-3,6,10,15,18-pentaone] | 93.15 | 5.8 | 
COC[C@@H]1NC(=O)[C@H](CC(=O)N2CC3(COC3)C2)N(Cc2ccc(Cl)cc2Oc2ccc(-c3cnc(CN(C)C)n3C)cc2)C(=O)C[C@@H](Cc2ccccc2)C(=O)N(C)C2CCCCC2NC(=O)C[C@H](Cc2ccc(Cl)cc2)N(C)C1=O (stereo in doubt) [Compound 106, (4S,7S,10S,14R,16aS,20aS)-14-benzyl-11-(4-chloro-2-(4-(2-((dimethylamino)methyl)-1-methyl-1H-imidazol-5-yl)phenoxy)benzyl)-4-(4-chlorobenzyl)-7-(methoxymethyl)-5,16-dimethyl-10-(2-oxo-2-(2-oxa-6-azaspiro[3.3]heptan-6-yl)ethyl)hexadecahydrobenzo[l][1,4,7,11,14]pentaazacyclooctadecine-2,6,9,12,15(3H)-pentaone] | 106.45 | 2 | 
COC[C@@H]1NC(=O)[C@H](C)N(Cc2ccc(Cl)cc2Oc2ccc(-c3cnc(CN(C)C)n3C)cc2)C(=O)C[C@@H](C)C(=O)N(C)[C@@H](CC(C)C)CNC(=O)C[C@H](Cc2ccc(Cl)cc2)N(C)C1=O [Compound 255, (5S,8S,13S,16R)-1-(4-chloro-2-(4-(2-((dimethylamino)methyl)-1-methyl-1H-imidazol-5-yl)phenoxy)benzyl)-8-(4-chlorobenzyl)-13-isobutyl-5-(methoxymethyl)-2,7,14,16-tetramethyl-1,4,7,11,14-pentaazacyclooctadecane-3,6,10,15,18-pentaone] | 64.95 | 19.7 | 
COC[C@@H]1NC(=O)[C@H](C)N(Cc2ccc(Cl)cc2Oc2ccc(-c3cnc(CN4CCCC4)n3C)cc2)C(=O)C[C@@H](Cc2cccc(OC(F)(F)F)c2)C(=O)N(C)[C@@H](C)CNC(=O)C[C@H](Cc2ccc(Cl)cc2)N(C)C1=O [Compound 206, (2S,5S,8S,13S,16R)-1-(4-chloro-2-(4-(1-methyl-2-(pyrrolidin-1-ylmethyl)-1H-imidazol-5-yl)phenoxy)benzyl)-8-(4-chlorobenzyl)-5-(methoxymethyl)-2,7,13,14-tetramethyl-16-(3-(trifluoromethoxy)benzyl)-1,4,7,11,14-pentaazacyclooctadecane-3,6,10,15,18-pentaone] | 99.72 | 5.8 | 
COC[C@@H]1NC(=O)[C@H](C)N(Cc2ccc(Cl)cc2Oc2ccc(-c3cncc(C4CCN(CCF)CC4)c3)cc2)C(=O)C[C@@H](Cc2ccccc2)C(=O)N(C)[C@@H](C)CNC(=O)C[C@H](Cc2ccc(Cl)cc2)N(C)C1=O |  |  | 3.2
COC[C@@H]1NC(=O)[C@H](CC(=O)N2CC(C)(O)C2)N(Cc2ccc(Cl)cc2Oc2ccc(-c3cnc(CN(C)C)n3C)cc2)C(=O)C[C@@H](Cc2ccccc2)C(=O)N(C)C2CCCCC2NC(=O)C[C@H](Cc2ccc(Cl)cc2)N(C)C1=O (stereo in doubt) [Compound 52, (4S,7S,10S,14R,16aS,20aS)-14-benzyl-11-(4-chloro-2-(4-(2-((dimethylamino)methyl)-1-methyl-1H-imidazol-5-yl)phenoxy)benzyl)-4-(4-chlorobenzyl)-10-(2-(3-hydroxy-3-methylazetidin-1-yl)-2-oxoethyl)-7-(methoxymethyl)-5,16-dimethylhexadecahydrobenzo[l][1,4,7,11,14]pentaazacyclooctadecine-2,6,9,12,15(3H)-pentaone] | 104.32 | 1.5 | 
COC[C@@H]1NC(=O)[C@H](CCCCN(C)C)N(Cc2ccc(Cl)cc2Oc2ccc(-c3cnc(CN(C)C)n3C)cc2)C(=O)C[C@@H](Cc2ccccc2)C(=O)N(C)[C@@H](C)CNC(=O)C[C@H](Cc2ccc(Cl)cc2)N(C)C1=O [Compound 225, (2S,5S,8S,13S,16R)-16-benzyl-1-(4-chloro-2-(4-(2-((dimethylamino)methyl)-1-methyl-1H-imidazol-5-yl)phenoxy)benzyl)-8-(4-chlorobenzyl)-2-(4-(dimethylamino)butyl)-5-(methoxymethyl)-7,13,14-trimethyl-1,4,7,11,14-pentaazacyclooctadecane-3,6,10,15,18-pentaone] | 98.86 | 8 | 

Continued by falling IC50 [1], values first:

Max % inhibition [%] | IC50 [1] [nM] | IC50 [nM] | SMILES
97.49 | 94.6 |  | COC[C@@H]1NC(=O)[C@H](COC)N(Cc2ccc(Cl)cc2Oc2ccc(-c3cnc(CN(C)C)n3C)cc2)C(=O)C[C@@H](Cc2ccccc2)C(=O)N(C)[C@@H](C)CNC(=O)C[C@H](Cc2ccc(Cl)cc2)N(C)C1=O [Compound 78, (2S,5S,8S,13S,16R)-16-benzyl-1-(4-chloro-2-(4-(2-((dimethylamino)methyl)-1-methyl-1H-imidazol-5-yl)phenoxy)benzyl)-8-(4-chlorobenzyl)-2,5-bis(methoxymethyl)-7,13,14-trimethyl-1,4,7,11,14-pentaazacyclooctadecane-3,6,10,15,18-pentaone]
79.36 | 52.4 |  | COC[C@@H]1NC(=O)[C@H](C)N(Cc2ccc(Cl)cc2Oc2ccc(-c3cnc(CN4CCCC4)n3C)cc2)C(=O)C[C@@H](Cc2ccccc2)C(=O)N(C)[C@@H](C)CNC(=O)C[C@H](Cc2ccc(Cl)cc2)NC1=O [Compound 256, (2S,5S,8S,13S,16R)-16-benzyl-1-(4-chloro-2-(4-(1-methyl-2-(pyrrolidin-1-ylmethyl)-1H-imidazol-5-yl)phenoxy)benzyl)-8-(4-chlorobenzyl)-5-(methoxymethyl)-2,13,14-trimethyl-1,4,7,11,14-pentaazacyclooctadecane-3,6,10,15,18-pentaone]
100.29 | 24.8 |  | COC[C@@H]1NC(=O)[C@H](C)N(Cc2ccc(F)cc2Oc2ccc(-c3cnc(CN(C)C)n3C)cc2)C(=O)C[C@@H](Cc2ccccc2)C(=O)N(C)[C@@H](C)CNC(=O)C[C@H](Cc2ccc(Cl)cc2)N(C)C1=O [Compound 199, (2S,5S,8S,13S,16R)-16-benzyl-8-(4-chlorobenzyl)-1-(2-(4-(2-((dimethylamino)methyl)-1-methyl-1H-imidazol-5-yl)phenoxy)-4-fluorobenzyl)-5-(methoxymethyl)-2,7,13,14-tetramethyl-1,4,7,11,14-pentaazacyclooctadecane-3,6,10,15,18-pentaone]
72.43 | 18.7 |  | CCOC(=O)c1ncn(-c2ccc(Oc3cc(Cl)ccc3CN3C(=O)C[C@@H](Cc4ccccc4)C(=O)N(C)[C@@H](C)CNC(=O)C[C@H](Cc4ccc(Cl)cc4)N(C)C(=O)[C@H](COC)NC(=O)[C@@H]3C)cc2)c1C [Compound 149, ethyl 1-(4-(2-(((2S,5S,8S,13S,16R)-16-benzyl-8-(4-chlorobenzyl)-5-(methoxymethyl)-2,7,13,14-tetramethyl-3,6,10,15,18-pentaoxo-1,4,7,11,14-pentaazacyclooctadecan-1-yl)methyl)-5-chlorophenoxy)phenyl)-5-methyl-1H-imidazole-4-carboxylate]
71.82 | 5.4 |  | COC[C@@H]1NC(=O)[C@H](C)N(Cc2ccc(Cl)cc2Oc2ccc(-c3cnc4c(c3)CN(C(=O)[C@@H]3CCNC3)CC4)cc2)C(=O)C[C@@H](Cc2ccccc2)C(=O)N(C)[C@@H](C)CNC(=O)C[C@H](Cc2ccc(Cl)cc2)N(C)C1=O [Compound 212, (2S,5S,8S,13S,16R)-16-benzyl-1-(4-chloro-2-(4-(6-((R)-pyrrolidine-3-carbonyl)-5,6,7,8-tetrahydro-1,6-naphthyridin-3-yl)phenoxy)benzyl)-8-(4-chlorobenzyl)-5-(methoxymethyl)-2,7,13,14-tetramethyl-1,4,7,11,14-pentaazacyclooctadecane-3,6,10,15,18-pentaone]
103.69 | 4 |  | CCC[C@@H](O)[C@@H]1CC(=O)N(Cc2ccc(Cl)cc2Oc2ccc(-c3cnc(CN(C)C)n3C)cc2)[C@@H](C)C(=O)N[C@@H](COC)C(=O)N(C)[C@@H](Cc2ccc(Cl)cc2)CC(=O)NC[C@H](C)N(C)C1=O [Compound 75, (2S,5S,8S,13S,16S)-1-(4-chloro-2-(4-(2-((dimethylamino)methyl)-1-methyl-1H-imidazol-5-yl)phenoxy)benzyl)-8-(4-chlorobenzyl)-16-((R)-1-hydroxybutyl)-5-(methoxymethyl)-2,7,13,14-tetramethyl-1,4,7,11,14-pentaazacyclooctadecane-3,6,10,15,18-pentaone]
109.05 | 2.1 |  | Cc1c(CN2CCCC2)ncn1-c1ccc(Oc2cc(Cl)ccc2CN2C(=O)C[C@@H](Cc3ccccc3)C(=O)N(C)[C@H]3CCCC[C@@H]3NC(=O)C[C@H](Cc3ccc(Cl)cc3)N(C)C(=O)[C@H](CO)NC(=O)[C@@H]2C)cc1 [Compound 260, (4S,7S,10S,14R,16aS,20aS)-14-benzyl-11-(4-chloro-2-(4-(5-methyl-4-(pyrrolidin-1-ylmethyl)-1H-imidazol-1-yl)phenoxy)benzyl)-4-(4-chlorobenzyl)-7-(hydroxymethyl)-5,10,16-trimethylhexadecahydrobenzo[l][1,4,7,11,14]pentaazacyclooctadecine-2,6,9,12,15(3H)-pentaone]
